Here are results for six molecules from patent US12374538B2, “Systems and methods for quantifying an analyte extracted from a sample” (Purdue Research Foundation, priority 2014, dated 2025).

“And” between values parts separate entries of the source, which are not always exact repeats. Equal values may be shown once.

The conditions of data set [1]: log([solute]octanol/[solute]water), un-ionized compound; cited from earlier work.
For another data set, the system named is cholinesterase (ChE). As to conditions: human whole blood diluted 10 times, acetylthiocholine 1.8 mg/mL, 5 min incubation in capillary, vs control.

Description for cholinesterase (ChE): For testing of a particular solvent, 5 μL blood sample (diluted) was injected into the capillary with the extraction solvent plug immediately after the mixing the acetylthiocholine into the blood. After the 5 min incubation in capillary, the TCh/ATch ratio was measured using SFME nanoESI MS. For the control, 5 min after the mixing acetylthiocholine into the diluted blood, the sample was taken and analyzed immediately using SFME nanoESI MS with ethyl acetate as the extraction phase. Spray voltage of 1.5 kV was used for nanoESI.
SFME-nanoESI was applied for monitoring the enzymatic activity of cholinesterase (ChE) in whole blood samples. […] The blood sample was diluted 10 times to slow down the reaction rate as well as to facilitate the slug flows for SFME. The substrate acetylthiocholine iodine was added into the diluted blood sample at a concentration of 1.8 mg/mL, and then 5 μL sample was taken immediately and injected into the capillary with 5 μL extraction phase. The capillary with the sample and the extraction solvent was left in room temperature 25° C. for incubation. The SFME-nanoESI could be performed repeatedly on the same sample and the ratio of the substrate ATCh and the reaction product TCh could be monitored as a function of time to characterize the enzymatic activity of the ChE. […]

For the molecule `Cc1ccc(/N=C/N(C)/C=N/c2ccc(C)cc2C)c(C)c1` [amitraz], in data set [1], the “Log P (partition coefficient)” value was 5.
With `CN1[C@H]2CC[C@@H]1[C@@H](C(=O)O)[C@@H](OC(=O)c1ccccc1)C2` [benzoylecgonine], the “Log P (partition coefficient)” value in data set [1] is −0.59 and −0.6.
As to `ClC(Cl)Cl` [chloroform], in the data set on cholinesterase (ChE), the “reduction of ChE activity due to contact with extraction solvent” value was “more than 60%”.
Regarding `CN1C(=O)CC[C@H]1c1cccnc1` [cotinine], in data set [1], the “Log P (partition coefficient)” value is recorded as 0.07.
Take `CCOC(C)=O` [ethyl acetate]: the “reduction of ChE activity due to contact with extraction solvent” value in the data set on cholinesterase (ChE) is reported as “minimal”.
On to `N[C@@H](Cc1ccccc1)C(=O)O` [phenylalanine], for which, in data set [1], the “Log P (partition coefficient)” value is given as −1.38.
